The source of these data is ChEMBL document CHEMBL1145025, “Structure-activity relationship of (1-aryl-2-piperazinylethyl)piperazines: antagonists for the AGRP/melanocortin receptor binding” (J Med Chem, 2003).

Activity calls are given as the source filed them.

Assay [1] has as its target T1, Melanocortin receptor 4 (Homo sapiens, UniProt P32245). The experiment in a line: In vitro ability to inhibit the binding of [125I]AGRP to the human Melanocortin 4 receptor.
Assay [2] has as its target T1, Melanocortin receptor 4. The experiment in a line: In vitro ability to inhibit the binding of alpha [125I]NDP-MSH to the human Melanocortin 4 receptor.
Assay [3] addresses T1, Melanocortin receptor 4. The experiment in a line: Fold selectivity for AGRP vs NDP-MSH binding was reported.
A short description of assay [4]: Fold selectivity for AGRP vs NDP-MSH binding was reported; Minimal Activity.
Assay [5] in a line: Fold selectivity for AGRP vs NDP-MSH binding to human MC4R was reported; Minimal activity.

T1 sequence (P32245 whole entry): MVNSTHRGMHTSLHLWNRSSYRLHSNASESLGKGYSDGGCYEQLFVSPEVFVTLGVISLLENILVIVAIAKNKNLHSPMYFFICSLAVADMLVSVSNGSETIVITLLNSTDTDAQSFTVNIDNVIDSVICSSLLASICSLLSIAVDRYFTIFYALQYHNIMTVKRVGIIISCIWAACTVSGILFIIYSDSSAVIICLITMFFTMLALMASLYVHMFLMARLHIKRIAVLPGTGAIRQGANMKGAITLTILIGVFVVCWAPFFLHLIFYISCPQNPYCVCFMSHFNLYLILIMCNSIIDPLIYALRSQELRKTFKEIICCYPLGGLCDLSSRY

One may read the IC50 as the point on the concentration scale where inhibition reaches its midpoint. With `COc1ccc(C(=O)C(C)CN2CCN(CC(c3ccc(F)cc3)N3CCN(C)CC3)CC2)cc1` (configuration not stated), the IC50 in assay [1] came out at 2150 nM; in assay [2] it was 597 nM. The same molecule had a Selectivity in assay [3] of 0.3.
For `CC(CN1CCN(CC(c2ccc(Cl)cc2)N2CCN(C)CC2)CC1)C(=O)c1ccc(Cl)cc1` (configuration not stated), the IC50 in assay [1] came out at 118 nM; in assay [2], 150 nM. The Selectivity in assay [3] was 0.8.
For the molecule `CC(CN1CCN(CC(c2ccc(F)cc2)N2CCN(C)CC2)CC1)C(=O)c1ccc(Cl)cc1` (configuration not stated), the IC50 in assay [1] stood at 266 nM; in assay [2] it was 178 nM. The molecule further gave a Selectivity in assay [3] of 0.7.
Regarding `CN1CCN(C(CN2CCN(CCCc3ccccc3)CC2)c2ccc(F)cc2)CC1` (configuration not stated), the IC50 is greater than 10000 nM in assay [1] and 3830 nM in assay [2]. The Selectivity entry in assay [4] is “Partially active”.
As to `CC(CN1CCN(CC(c2ccccc2)N2CCN(C)CC2)CC1)C(=O)c1ccccc1` (configuration not stated), the IC50 in assay [1] was greater than 5000 nM; in assay [2], greater than 10000 nM. Besides, the Selectivity entry in assay [5] was “Partially active”.
`CC(CN1CCN(CC(c2ccc(F)cc2)N2CCN(C)CC2)CC1)C(=O)c1ccc(C(F)(F)F)cc1` (configuration not stated): the IC50 in assay [1] turned out to be 820 nM; in assay [2], 469 nM. Moreover, in assay [3], the Selectivity was found to be 0.5.
Regarding `CC(CN1CCN(CC(c2ccc(F)cc2)N2CCN(C)CC2)CC1)C(=O)c1ccc([N+](=O)[O-])cc1` (configuration not stated), the IC50 was found to be 588 nM in assay [1] and 1500 nM in assay [2]. Besides, the Selectivity in assay [3] amounted to 2.5.
For `CC(CN1CCN(CC(c2ccc(F)cc2)N2CCN(c3ccccc3)CC2)CC1)C(=O)c1ccccc1` (configuration not stated), the IC50 in assay [1] is 2860 nM; in assay [2], 249 nM. This molecule came in with a Selectivity in assay [3] of 0.1.
Turning to `CC(CN1CCN(CC(c2cccc(Cl)c2)N2CCN(C)CC2)CC1)C(=O)c1ccccc1` (configuration not stated), the IC50 in assay [1] was 336 nM; in assay [2] it was 598 nM. The molecule further registered a Selectivity in assay [3] of 1.8.
Turning to `CN1CCN(C(CN2CCN(CCC(=O)c3ccccc3)CC2)c2ccc(F)cc2)CC1` (configuration not stated), the IC50 in assay [1] and in assay [2] was greater than 10000 nM each time. Also, in assay [4], the Selectivity result was “Partially active”.
Turning to `CC(CN1CCN(CC(c2ccc(F)cc2)N2CCN(C3CCCCC3)CC2)CC1)C(=O)c1ccccc1` (configuration not stated), the values for the IC50 in assay [1] and in assay [2] were 152 nM and 164 nM, respectively. Moreover, the Selectivity in assay [3] amounted to 1.
Consider `CCN1CCN(C(CN2CCN(CC(C)C(=O)c3ccccc3)CC2)c2ccc(F)cc2)CC1` (configuration not stated), for which the IC50 in assay [1] worked out at 321 nM; in assay [2], 193 nM. For the same molecule, the Selectivity in assay [3] stood at 1.6.
Regarding `CC(CN1CCN(CC(c2ccc(F)cc2)N2CCN(C)CC2)CC1)C(=O)c1ccc(Cl)c(Cl)c1` (configuration not stated), the IC50 was found to be 364 nM in assay [1] and 188 nM in assay [2]. Besides, in assay [3], the Selectivity turned out to be 0.5.
Turning to `CN1CCN(C(CN2CCN(CC3CCc4ccccc4C3=O)CC2)c2ccc(Cl)cc2)CC1` (configuration not stated), the IC50 in assay [1] was greater than 10000 nM; in assay [2], 3230 nM. Besides, the Selectivity result in assay [4] was “Partially active”.
